{
  "source": "patent EP4360627A1",
  "about": "“TREATMENT OF OSTEOARTHRITIS WITH COMT INHIBITORS” (Institut National de la Santé et de la Recherche Médicale …, priority 2022, dated 2024)",
  "key": {"[1]": {"test_system": "chondrocytes articulaires humains", "assay": "RT-PCR mRNA expression in IL-1β-stimulated human articular chondrocytes", "assay_type": "cell-based", "settings": "IL-1β 1ng/mL, 48h, increasing doses of tolcapone, mRNA normalised to RPL13A", "description": "Les cellules ont été obtenus à partir de déchets opératoires selon la réglementation en vigueur (protocole approuvé par le comité de protection des personnes (CPP) Nord-Ouest III). Après la signature du consentement libre et éclairé par les patients, des têtes fémorales, des membranes synoviales et de la moelle osseuse sont récupérées à l'issue d'opération d'arthroplastie de la hanche chez des patients arthrosiques.\nLes têtes fémorales sont disséquées et des copeaux de cartilages sont réalisés. Les chondrocytes sont libérés par digestion à la pronase de type XIV (2 mg/ml pendant 15 minutes; Sigma), suivie d'une digestion à la collagénase de type II (2 mg/ml pendant une nuit; Gibco). Les cellules sont ensuite ensemencées à 4×10^4 cellules/cm^2 dans du milieu Eagle modifié de Dulbecco (DMEM) supplémenté avec 10% de sérum de veau foetal (SVF) avec un cocktail d'antibiotiques. Elles sont ensuite incubées à 37°C dans une atmosphère humidifiée contenant 5% de CO2.\nPour les trois types cellulaires, les cellules ont été amplifiées dans une enceinte humide à 37°C sous 5% de CO2. Les milieux de culture sont changés 2 à 3 fois par semaine. Un test mycoplasme a été réalisé afin de vérifier qu'elles ne sont pas contaminées. […]"}, "[2]": {"test_system": "modèle murin d'arthrose (MIA)", "assay": "Von Frey filament test (mechanical allodynia) in murine osteoarthritis model (MIA)", "assay_type": "in vivo, souris C57BL7", "settings": "intra-articular injections at 1, 2, 3 and 4 weeks after induction of osteoarthritis; arthritic paw relative to contralateral paw; figure 4B", "description": "(§1) Cette étude a été autorisée par le ministère de l'Enseignement Supérieur, de la Recherche et de l'Innovation après avis favorable du comité d'éthique locale, CENOMEXA (agrément n°B14118015). L'étude est réalisée au sein d'une animalerie agrée (UMS-CYCERON). Des souris C57BL7 mâles, âgées de 10 semaines ont été utilisés. Les souris étaient placées par cage de 8, en cycle inversé, nourriture et eau disponible ad libidum. L'état de santé de chaque souris était évalué quotidiennement.\n(§2) Les injections intra-articulaires (MIA ou tolcapone) ont également été réalisées sous anesthésie générale. Après un repérage clinique du ligament patellaire, les injections sont faites par voie intra articulaire du genou après passage du ligament patellaire à l'aiguille 27 Gauge.\nL'allodynie (douleur déclenchée pour un stimulus qui est normalement indolore) mécanique est évaluée par le test des filaments de Von Frey (BIOSEB In Vivo Research Instruments®). Ce test repose sur le principe selon lequel lorsque l'extrémité du filament (de longueur et de diamètre donnés) est appliquée perpendiculairement, la force exercée par le filament augmente jusqu'à ce que le filament fléchisse. Au-delà, la force exercée par le filament reste constante. Pour ce test, les souris sont placées dans une cage individuelle, sur une grille. Une période d'habituation de 30 minutes était requise avant le début du test. […]"}, "[3]": {"test_system": "modèle murin d'arthrose (MIA)", "assay": "Knee histology (safranine-O / Fast Green) in murine osteoarthritis model (MIA)", "assay_type": "in vivo, souris C57BL7", "settings": "intra-articular injections at 1, 2, 3 and 4 weeks after induction; histology at 8 weeks; versus MIA+vehicule; figure 5", "description": "as §1, §2\nLes articulations sont placées dans une solution de fixation (formaldehyde 37%, PBS) pendant 3 jours, puis décalcifié à l'aide d'Osteosoft pendant 48h. Ensuite, les articulations sont conservées à -80°C dans l'Optimal Cutting Temperature compound (OCT). Des coupes de 10 µm d'épaisseur ont été réalisées à -25°C à l'aide d'un Cryostat (CM 3050 S, Leica BIOSYSTEMS, France), puis montées sur des lames de microscopies SuperFrost®. Les lames sont ensuite colorées au Fast Green puis à la safranine-O. La safranine-O permet de mettre en évidence les composants du cartilage articulaire. […]"}},
  "data": [
    {"smiles": "Cc1ccc(C(=O)c2cc(O)c(O)c([N+](=O)[O-])c2)cc1", "note": "[tolcapone]", "values": [
      {"measurement": "expression de gènes impliqués dans le catabolisme (tel que MMP13)", "setting": "[1]; figure 3A", "value": "réduit notamment l'expression de gènes impliqués dans le catabolisme (tel que MMP13)"},
      {"measurement": "expression de gènes impliqués dans l'inflammation (tel que l'IL-6)", "setting": "[1]; figure 3B", "value": "réduit notamment l'expression"},
      {"measurement": "douleur induite (Von Frey)", "setting": "[2]", "value": "réduit nettement la douleur induite"},
      {"measurement": "dommages articulaires (étude histologique)", "setting": "[3]", "value": "réduit les dommages articulaires"},
      {"measurement": "dégradation du cartilage (étude histologique)", "setting": "[3]", "value": "très fortement limité la dégradation du cartilage"}
    ]}
  ]
}
